# From ChEMBL document CHEMBL5338710, “Discovery of dearomatized isoprenylated acylphloroglucinols with colon tumor suppressive activities in mice via inhibiting NFκB-FAT1-PDCD4 signaling activation” (Eur J Med Chem, 2022)
# The source made the active and inactive calls. The rule behind the calls is not given here.
# Test system: HCT-116
# Assay: Antiproliferative activity against human HCT-116 cells assessed as reduction in cell viability at 5 uM measured after 48 hrs by MTT assay
# Type: functional, cell-based
# Details: not given
row,Compound,Activity
1,C=C(C)[C@@H]1CC[C@@]2(C)OC3=C(CC12)C(O)=C(C(=O)C(C)C)C(=O)C3(C)CC=C(C)C (some centres undefined),Active
2,CC(C)=CC[C@@]1(C)C(=O)C(C(=O)C(C)C)=C(O)C2=C1O[C@]1(C)CC[C@@]3(C(C)C)O[C@@]13[C@H]2O,Active
3,CC(C)=CCC1(CC=C(C)C)C(=O)C(C(=O)C(C)C)=C(O)C2=C1OC(C)(C)[C@@H]1CC[C@@](C)(O)[C@@H]1C2,Active
4,CC(C)=CCC1(CC=C(C)C)C(=O)C(C(=O)c2ccccc2)=C(O)C([C@@H]2C[C@H]3CC[C@]2(C)OC3(C)C)=C1O,Active
5,C=C(C)[C@@H]1CC[C@@](C)(O)[C@H]1CC1=C(O)C(CC=C(C)C)(CC=C(C)C)C(=O)C(C(=O)C(C)CC)=C1O (some centres undefined),Active
6,CC(C)=CC[C@]1(C)C(=O)C(C(=O)C(C)C)=C(O)C2=C1OC(C)(C)C1CC[C@@](C)(O)[C@H]1C2 (some centres undefined),Active
7,CC(C)=CCC1(CC=C(C)C)C(=O)C(C(=O)C(C)C)=C(O)C([C@H]2C[C@]3(C(C)(C)O)CC[C@@]2(C)O3)=C1O,Active
8,CC(C)=CC[C@@]12C[C@@H](C(C)(C)O)OC1=C(CC1[C@H]3CC[C@]1(C)OC3(C)C)C(O)=C(C(=O)C(C)C)C2=O (some centres undefined),Active
9,CCC(C)C(=O)C1=C(O)C2=C(OC(C)(C)C3CC[C@@](C)(O)[C@H]3C2)[C@](C)(CC=C(C)C)C1=O (some centres undefined),Active
10,C=C(C)[C@@H]1CC[C@@](C)(O)[C@H]1CC1=C(O)C(C)(CC=C(C)C)C(=O)C(C(=O)C(C)CC)=C1O (some centres undefined),Active
11,C=C(C)[C@H]1CC[C@@](C)(O)[C@@H](C2=C(O)[C@@](C)(CC=C(C)C)C(=O)C(C(=O)C(C)CC)=C2O)C1 (some centres undefined),Active
12,CC(C)=CCC1(CC=C(C)C)C(=O)C(C(=O)C(C)C)=C(O)C2=C1O[C@]1(C)CCC3(C(C)C)OC31[C@H]2O (some centres undefined),Active
13,C=C(C)[C@@H]1CC[C@](C)(O)[C@H]1CC1=C2O[C@H](C(C)(C)O)C[C@]2(CC=C(C)C)C(=O)C(C(=O)c2ccccc2)=C1O,Active
14,CC(C)=CCC1(C)C(=O)C(C(=O)C(C)C)=C(O)C([C@@H]2C[C@H]3CC[C@]2(C)OC3(C)C)=C1O (some centres undefined),Active
15,C=C(C)[C@@H]1CC[C@@](C)(O)[C@H]1CC1=C2O[C@H](C(C)(C)O)C[C@]2(C)C(=O)C(C(=O)C(C)CC)=C1O (some centres undefined),Active
16,C=C(C)[C@@H]1CC[C@@](C)(O)[C@H]1CC1=C2O[C@H](C(C)(C)O)C[C@]2(CC=C(C)C)C(=O)C(C(=O)C(C)C)=C1O,Active
17,CCC(C)C(=O)C1=C(O)C2=C(OC(C)(C)[C@@H]3CC[C@@](C)(O)[C@@H]3C2)[C@](C)(CC=C(C)C)C1=O (some centres undefined),Active
18,C=C(C)[C@@H]1CC[C@@]2(C)OC3=C(CC12)C(O)=C(C(=O)c1ccccc1)C(=O)C3(CC=C(C)C)CC=C(C)C (some centres undefined),Active
19,CC(C)=CC[C@@]1(C)C(=O)C(C(=O)C(C)C)=C(O)C([C@H]2C[C@]3(C(C)(C)O)CC[C@@]2(C)O3)=C1O,Active
20,C=C(C)[C@@H]1CC[C@@](C)(O)[C@H]1CC1=C(O)C(CC=C(C)C)(CC=C(C)C)C(=O)C(C(=O)c2ccccc2)=C1O,Active
21,C=C(C)[C@H]1CC[C@@](C)(O)[C@@H](C2=C(O)[C@](C)(CC=C(C)C)C(=O)C(C(=O)C(C)C)=C2O)C1,Active
22,C=C(C)[C@H]1CC[C@@](C)(O)[C@@H](C2=C(O)C(CC=C(C)C)(CC=C(C)C)C(=O)C(C(=O)c3ccccc3)=C2O)C1,Active
23,C=C(C)[C@@H]1CC[C@@](C)(O)[C@H]1CC1=C2O[C@H](C(C)(C)O)C[C@]2(CC=C(C)C)C(=O)C(C(=O)c2ccccc2)=C1O,Active
24,CC(C)=CCC1(CC=C(C)C)C(=O)/C(=C(/O)c2ccccc2)C2=C(C1O)[C@H]1C=C(C(C)C)CC[C@@]1(C)O2 (some centres undefined),Active
25,CC(C)=CC[C@]1(C)C(=O)C(C(=O)C(C)C)=C(O)C2=C1O[C@]1(C)CC[C@]3(C(C)C)O[C@]13[C@H]2O,Active
26,COC[C@@H]1C2=C(O)C(CC=C(C)C)(CC=C(C)C)C(=O)C(C(=O)C(C)C)=C2OC1(C)C,Active
27,CC(C)=CC[C@@]12C(=O)C(C(=O)C(C)C)=C(O)C(C)=C1O[C@]1(C)CCC(C(C)C)=C[C@H]21,Active
28,CC(C)=CCC1(CC=C(C)C)C(=O)C(C(=O)c2ccccc2)=C(O)C([C@H]2C=C(C(C)C)CC[C@@]2(C)O)=C1O,Active
29,C=C(C)[C@H]1CC[C@@]2(C)OC3=C(CC12)C(O)=C(C(=O)C(C)CC)C(=O)C3(C)CC=C(C)C (some centres undefined),Active

# Test system: HCT-116
# Assay: Antiproliferative activity against human HCT-116 cells assessed as reduction in cell viability measured after 48 hrs by MTT assay
# Type: functional, cell-based
# Details: HCT-116, 48 h
row,Compound,IC50
1,C=C(C)[C@@H]1CC[C@@](C)(O)[C@H]1CC1=C(O)C(CC=C(C)C)(CC=C(C)C)C(=O)C(C(=O)C(C)CC)=C1O (some centres undefined),2.46 µM
2,C=C(C)[C@@H]1CC[C@@](C)(O)[C@H]1CC1=C(O)C(C)(CC=C(C)C)C(=O)C(C(=O)C(C)CC)=C1O (some centres undefined),5.63 µM
3,C=C(C)[C@H]1CC[C@@](C)(O)[C@@H](C2=C(O)[C@@](C)(CC=C(C)C)C(=O)C(C(=O)C(C)CC)=C2O)C1 (some centres undefined),2.32 µM
4,C=C(C)[C@H]1CC[C@@](C)(O)[C@@H](C2=C(O)[C@](C)(CC=C(C)C)C(=O)C(C(=O)C(C)C)=C2O)C1,2.63 µM
5,C=C(C)[C@H]1CC[C@@](C)(O)[C@@H](C2=C(O)C(CC=C(C)C)(CC=C(C)C)C(=O)C(C(=O)c3ccccc3)=C2O)C1,3.67 µM

# Test system: not listed separately
# Assay: Antiproliferative activity against human PBMC cells assessed as reduction in cell viability measured after 48 hrs by MTT assay
# Type: toxicity, cell-based
# Details: not given
row,Compound,IC50 at 48 h
1,C=C(C)[C@@H]1CC[C@@](C)(O)[C@H]1CC1=C(O)C(CC=C(C)C)(CC=C(C)C)C(=O)C(C(=O)C(C)CC)=C1O (some centres undefined),10 µM
2,C=C(C)[C@@H]1CC[C@@](C)(O)[C@H]1CC1=C(O)C(C)(CC=C(C)C)C(=O)C(C(=O)C(C)CC)=C1O (some centres undefined),> 100 µM
3,C=C(C)[C@H]1CC[C@@](C)(O)[C@@H](C2=C(O)[C@@](C)(CC=C(C)C)C(=O)C(C(=O)C(C)CC)=C2O)C1 (some centres undefined),19.6 µM
4,C=C(C)[C@H]1CC[C@@](C)(O)[C@@H](C2=C(O)[C@](C)(CC=C(C)C)C(=O)C(C(=O)C(C)C)=C2O)C1,14.4 µM
5,C=C(C)[C@H]1CC[C@@](C)(O)[C@@H](C2=C(O)C(CC=C(C)C)(CC=C(C)C)C(=O)C(C(=O)c3ccccc3)=C2O)C1,24 µM

# Target: Nuclear factor NF-kappa-B complex (Homo sapiens) (UniProt Q00653+P19838+Q04206)
# Sequence (P19838 whole entry, looked up): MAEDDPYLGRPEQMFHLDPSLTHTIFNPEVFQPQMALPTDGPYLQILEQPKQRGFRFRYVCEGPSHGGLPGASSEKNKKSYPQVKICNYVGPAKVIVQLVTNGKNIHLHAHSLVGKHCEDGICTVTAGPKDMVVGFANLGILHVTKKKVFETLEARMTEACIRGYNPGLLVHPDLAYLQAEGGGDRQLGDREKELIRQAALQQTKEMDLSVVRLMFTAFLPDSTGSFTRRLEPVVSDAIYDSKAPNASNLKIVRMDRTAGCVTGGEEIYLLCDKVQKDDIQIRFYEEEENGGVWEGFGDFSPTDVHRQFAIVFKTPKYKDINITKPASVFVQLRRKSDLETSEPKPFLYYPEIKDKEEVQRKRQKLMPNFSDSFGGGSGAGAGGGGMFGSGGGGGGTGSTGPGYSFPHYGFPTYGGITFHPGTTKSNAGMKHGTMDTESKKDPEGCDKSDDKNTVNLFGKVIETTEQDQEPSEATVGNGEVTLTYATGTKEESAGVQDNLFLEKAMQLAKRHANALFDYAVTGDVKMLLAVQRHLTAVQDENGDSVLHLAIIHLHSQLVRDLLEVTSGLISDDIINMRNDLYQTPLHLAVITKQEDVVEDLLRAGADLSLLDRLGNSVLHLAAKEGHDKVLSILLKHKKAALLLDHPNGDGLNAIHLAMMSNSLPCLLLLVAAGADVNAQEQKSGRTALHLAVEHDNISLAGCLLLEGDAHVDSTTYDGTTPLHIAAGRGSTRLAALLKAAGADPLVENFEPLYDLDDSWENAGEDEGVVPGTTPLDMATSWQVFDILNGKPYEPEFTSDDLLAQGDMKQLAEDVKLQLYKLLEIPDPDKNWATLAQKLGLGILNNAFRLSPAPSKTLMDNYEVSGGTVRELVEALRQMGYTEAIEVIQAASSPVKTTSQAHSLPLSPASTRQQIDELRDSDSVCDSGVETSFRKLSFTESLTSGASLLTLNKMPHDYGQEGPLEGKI
# Sequence (Q00653 whole entry, looked up): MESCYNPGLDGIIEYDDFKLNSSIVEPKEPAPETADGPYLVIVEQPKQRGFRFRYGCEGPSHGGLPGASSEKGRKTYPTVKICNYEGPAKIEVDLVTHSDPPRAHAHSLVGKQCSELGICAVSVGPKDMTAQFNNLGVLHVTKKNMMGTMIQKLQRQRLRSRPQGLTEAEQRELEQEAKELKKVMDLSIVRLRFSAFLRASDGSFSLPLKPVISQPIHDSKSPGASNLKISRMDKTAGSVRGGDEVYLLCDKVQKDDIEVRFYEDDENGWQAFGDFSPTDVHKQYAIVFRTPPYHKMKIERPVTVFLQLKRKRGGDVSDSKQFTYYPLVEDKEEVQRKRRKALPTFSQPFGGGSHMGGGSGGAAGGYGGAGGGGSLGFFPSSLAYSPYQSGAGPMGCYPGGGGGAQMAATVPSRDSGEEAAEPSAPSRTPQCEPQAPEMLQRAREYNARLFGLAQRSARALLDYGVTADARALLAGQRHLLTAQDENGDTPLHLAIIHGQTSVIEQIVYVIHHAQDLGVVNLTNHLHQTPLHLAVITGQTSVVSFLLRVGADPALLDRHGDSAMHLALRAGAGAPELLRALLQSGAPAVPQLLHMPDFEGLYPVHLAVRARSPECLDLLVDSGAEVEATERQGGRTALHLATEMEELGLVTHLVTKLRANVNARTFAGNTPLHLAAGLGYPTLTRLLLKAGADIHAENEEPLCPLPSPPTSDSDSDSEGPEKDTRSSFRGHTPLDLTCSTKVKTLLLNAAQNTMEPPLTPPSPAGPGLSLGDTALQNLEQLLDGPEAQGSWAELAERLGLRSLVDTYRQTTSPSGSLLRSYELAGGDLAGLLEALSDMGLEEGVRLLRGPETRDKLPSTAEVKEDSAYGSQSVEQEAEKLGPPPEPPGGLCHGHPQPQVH
# Sequence (Q04206 whole entry, looked up): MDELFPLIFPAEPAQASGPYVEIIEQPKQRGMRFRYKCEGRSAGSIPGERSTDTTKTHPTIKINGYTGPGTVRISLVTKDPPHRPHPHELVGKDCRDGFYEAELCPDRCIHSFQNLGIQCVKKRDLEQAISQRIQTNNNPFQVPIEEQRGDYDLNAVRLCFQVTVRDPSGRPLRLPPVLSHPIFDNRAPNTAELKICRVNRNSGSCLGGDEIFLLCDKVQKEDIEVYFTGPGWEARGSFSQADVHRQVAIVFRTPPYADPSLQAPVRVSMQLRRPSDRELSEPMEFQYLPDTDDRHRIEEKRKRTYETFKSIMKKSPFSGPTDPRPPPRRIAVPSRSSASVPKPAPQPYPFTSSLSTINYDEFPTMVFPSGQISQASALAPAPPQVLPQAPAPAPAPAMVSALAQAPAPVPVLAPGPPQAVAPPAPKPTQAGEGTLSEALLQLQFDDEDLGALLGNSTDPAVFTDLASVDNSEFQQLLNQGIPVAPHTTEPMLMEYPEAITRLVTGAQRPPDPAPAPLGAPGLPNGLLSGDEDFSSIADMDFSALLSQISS
# Assay: Inhibition of TNFalpha induced-NFkB phosphorylation in human HCT-116 cells at 1 to 5 uM pretreated for 24 hrs followed by TNFalpha induction and measured after 24 hrs by Western blot analysis
# Type: cell-based
# Details: dose 1-5 µM, time 48.0 hrs
row,Compound,inhibition
1,C=C(C)[C@H]1CC[C@@](C)(O)[C@@H](C2=C(O)C(CC=C(C)C)(CC=C(C)C)C(=O)C(C(=O)C(C)C)=C2O)C1,inactive

# Test system: HCT-116
# Assay: Antitumor activity against human HCT-116 cells xenografted in nude mouse assessed as decrease in tumor volume at 25 mg/kg, iv measured upto 23 days in presence of oxaliplatin
# Type: functional, organism-based
# Details: time <= 23.0 day
row,Compound,Activity
1,O=c1[nH]cc(F)c(=O)[nH]1,Active

# Test system: HCT-116
# Assay: Antitumor activity against human HCT-116 cells xenografted in nude mouse assessed as decrease in tumor weight at 25 mg/kg, iv measured upto 23 days in presence of oxaliplatin
# Type: functional, organism-based
# Details: time <= 23.0 day
row,Compound,Activity
1,O=c1[nH]cc(F)c(=O)[nH]1,Active

# Test system: HCT-116
# Assay: Antitumor activity against human HCT-116 cells xenografted in nude mouse assessed as decrease in tumor volume at 3 to 4 mg/kg, iv measured for 23 days in presence of oxaliplatin
# Type: functional, organism-based
# Details: dose 3-4 mg/kg, time 23.0 day
row,Compound,Activity
1,O=c1[nH]cc(F)c(=O)[nH]1,Active

# Test system: HCT-116
# Assay: Antitumor activity against human HCT-116 cells xenografted in nude mouse assessed as reduction in tumor weight at 3 to 4 mg/kg, iv measured for 23 days in presence of oxaliplatin
# Type: functional, organism-based
# Details: dose 3-4 mg/kg, time 23.0 day
row,Compound,Activity
1,O=c1[nH]cc(F)c(=O)[nH]1,Active
